Laboratory results taken from US20170198359A1, “METHODS AND COMPOSITIONS FOR TREATMENT OR DIAGNOSIS OF CANCERS RELATED TO GABRA3” (The Wistar Institute of Anatomy and Biology, priority 2016, published 2017).
“Also recorded” adds a separate entry of the source.

Tests used:
[1] = system: MCF7 cells stably expressing GABRA3; experiment: Transwell migration assay, MCF7-GABRA3 cells with AKT inhibitor; assay type: cell-based, human; conditions: different concentrations of the inhibitor vs control DMSO, FIG. 11A
Protocol: (§1) In vitro cell migration assays were performed as described previously (21, 22) using Trans-well chambers ([…] pore size; Costar). Cells were allowed to grow to subconfluency (˜75-80%) and were serum-starved for 24 h. After detachment with trypsin, cells were washed with PBS, resuspended in serum-free medium and 250 μl cell suspensions (2×10^5 cells ml−1) was added to the upper chamber. Complete medium was added to the bottom wells of the chambers. The cells that had not migrated were removed from the upper face of the filters using cotton swabs, and the cells that had migrated to the lower face of the filters were fixed with 5% glutaraldehyde solution and stained with 0.5% solution of Toluidine Blue in 2% sodium carbonate. Images of three random ×10 fields were captured from each membrane and the number of migratory cells was counted. […]
(§2) It has previously been shown that A-to-I edited GABRA3 affected the intracellular trafficking of GABRA3 (18), which is critical for the localization of GABRA3 on cell membrane. We determined the expression of GABRA3 on cell surface of breast cancer cells using FACS analysis. […] Since AKT pathway is critical in both breast cancer metastasis and therapy resistance (27-29), we determined the effect of GABRA3 on AKT activation and whether AKT pathway mediates GABRA3 functions in migration and invasion. […]

[2] = system: MCF7 cells stably expressing GABRA3; experiment: Matrigel invasion assay, MCF7-GABRA3 cells with AKT inhibitor; assay type: cell-based, human; conditions: different concentrations of the inhibitor vs control DMSO, FIG. 11B
Protocol: as §1, §2

[3] = system: melanoma; conditions: melanoma treatment, clinical trials; cited from earlier work
[4] = system: MDA-MB-436 cells; experiment: Boyden chamber invasion assay, MDA-MB-436 cells with GABRA3 inhibitors; assay type: cell-based, human; conditions: various concentrations (10 nM-10 μM), FIG. 12
Protocol: (§3) MDA-MB-436 cells were treated with GABRA3 inhibitors picrotoxin or flumazenil at various concentrations (10 nM-10 μM). Cells were then subjected to Boyden chamber assays (see, e.g., Ostrander et al, Cancer Res May 1, 2007 67; 4199, which is incorporated herein by reference).

[5] = system: MDA-MB-436 cells; experiment: Boyden chamber migration assay, MDA-MB-436 cells with GABRA3 inhibitors; assay type: cell-based, human; conditions: various concentrations (10 nM-10 μM), FIG. 12
Protocol: as §3

Row | Compound | cell migration [1] | cell invasion [2] | anti-tumor activity [3] | cell invasion [4] | cell migration [5]
1 | NC1(c2ccc(-c3nc4ccn5c(=O)[nH]nc5c4cc3-c3ccccc3)cc2)CCC1 [MK-2206] | inhibited cell migration and invasion in a dose-dependent manner; also recorded: suppressed | inhibited cell migration and invasion in a dose-dependent manner; also recorded: suppressed | – | – | –
2 | Nc1nc2ccc(OC(F)(F)F)cc2s1 [Riluzole] | – | – | significant anti-tumor activity | – | –
3 | CCOC(=O)c1ncn2c1CN(C)C(=O)c1cc(F)ccc1-2 [flumazenil] | – | – | – | suppress | suppress
4 | picrotoxin | – | – | – | suppress | suppress
